Assay results from paper PMC10507085, “Pharmacological inhibition of TBK1/IKKε blunts immunopathology in a murine model of SARS-CoV-2 infection” (Nature Communications, 2023).

Columns and labels:
Assay in all cases: biochemical
Parameters in all cases: KINOMEscan competition binding, DNA-tagged kinase against immobilised ligand, qPCR read-out
Conditions in all cases: read-out: Percent Control
[1] = target: T1, JAK3(JH1domain-catalytic) (Homo sapiens, UniProt P52333)
T1 construct: JH1 domain catalytic

CSNK1G1 = CSNK1G1 (Homo sapiens, UniProt Q9HCP0)
KIT = KIT (Homo sapiens, UniProt P10721)
AAK1 = AAK1 (Homo sapiens, UniProt Q2M2I8)
MAP3K10 = MAP3K10 (Homo sapiens, UniProt Q02779)
MAP3K10, sequence (Q02779 whole entry): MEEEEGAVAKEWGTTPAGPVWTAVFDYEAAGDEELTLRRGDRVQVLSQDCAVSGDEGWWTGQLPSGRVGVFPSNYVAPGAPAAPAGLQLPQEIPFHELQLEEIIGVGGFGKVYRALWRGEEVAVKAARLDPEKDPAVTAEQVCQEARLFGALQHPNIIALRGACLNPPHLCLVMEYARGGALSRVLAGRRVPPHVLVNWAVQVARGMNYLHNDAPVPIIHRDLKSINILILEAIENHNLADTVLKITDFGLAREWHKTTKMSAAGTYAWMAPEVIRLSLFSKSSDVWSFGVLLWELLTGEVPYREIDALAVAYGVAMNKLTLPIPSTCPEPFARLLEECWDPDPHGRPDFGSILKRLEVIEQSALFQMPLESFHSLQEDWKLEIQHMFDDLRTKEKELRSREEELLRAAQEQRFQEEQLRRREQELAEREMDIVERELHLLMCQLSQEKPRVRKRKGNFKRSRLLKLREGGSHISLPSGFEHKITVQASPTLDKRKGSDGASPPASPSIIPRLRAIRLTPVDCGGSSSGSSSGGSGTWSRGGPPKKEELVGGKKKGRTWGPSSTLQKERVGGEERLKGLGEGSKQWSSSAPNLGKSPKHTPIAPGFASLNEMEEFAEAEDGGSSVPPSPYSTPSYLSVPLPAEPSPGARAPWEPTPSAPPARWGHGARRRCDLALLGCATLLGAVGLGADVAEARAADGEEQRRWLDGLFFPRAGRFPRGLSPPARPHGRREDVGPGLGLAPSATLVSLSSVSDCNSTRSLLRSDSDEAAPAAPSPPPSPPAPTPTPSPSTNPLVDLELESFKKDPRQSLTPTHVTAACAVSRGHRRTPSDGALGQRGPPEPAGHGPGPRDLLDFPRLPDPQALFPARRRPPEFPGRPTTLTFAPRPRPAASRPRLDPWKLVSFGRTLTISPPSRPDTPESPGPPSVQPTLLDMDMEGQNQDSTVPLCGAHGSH

STK4 = STK4 (Homo sapiens, UniProt Q13043)
ADRBK1 = target: T2, ADRBK1 (Homo sapiens, UniProt P25098)
T2 construct: gene GRK2

KDR = KDR (Homo sapiens, UniProt P35968)
KDR, sequence (P35968 whole entry): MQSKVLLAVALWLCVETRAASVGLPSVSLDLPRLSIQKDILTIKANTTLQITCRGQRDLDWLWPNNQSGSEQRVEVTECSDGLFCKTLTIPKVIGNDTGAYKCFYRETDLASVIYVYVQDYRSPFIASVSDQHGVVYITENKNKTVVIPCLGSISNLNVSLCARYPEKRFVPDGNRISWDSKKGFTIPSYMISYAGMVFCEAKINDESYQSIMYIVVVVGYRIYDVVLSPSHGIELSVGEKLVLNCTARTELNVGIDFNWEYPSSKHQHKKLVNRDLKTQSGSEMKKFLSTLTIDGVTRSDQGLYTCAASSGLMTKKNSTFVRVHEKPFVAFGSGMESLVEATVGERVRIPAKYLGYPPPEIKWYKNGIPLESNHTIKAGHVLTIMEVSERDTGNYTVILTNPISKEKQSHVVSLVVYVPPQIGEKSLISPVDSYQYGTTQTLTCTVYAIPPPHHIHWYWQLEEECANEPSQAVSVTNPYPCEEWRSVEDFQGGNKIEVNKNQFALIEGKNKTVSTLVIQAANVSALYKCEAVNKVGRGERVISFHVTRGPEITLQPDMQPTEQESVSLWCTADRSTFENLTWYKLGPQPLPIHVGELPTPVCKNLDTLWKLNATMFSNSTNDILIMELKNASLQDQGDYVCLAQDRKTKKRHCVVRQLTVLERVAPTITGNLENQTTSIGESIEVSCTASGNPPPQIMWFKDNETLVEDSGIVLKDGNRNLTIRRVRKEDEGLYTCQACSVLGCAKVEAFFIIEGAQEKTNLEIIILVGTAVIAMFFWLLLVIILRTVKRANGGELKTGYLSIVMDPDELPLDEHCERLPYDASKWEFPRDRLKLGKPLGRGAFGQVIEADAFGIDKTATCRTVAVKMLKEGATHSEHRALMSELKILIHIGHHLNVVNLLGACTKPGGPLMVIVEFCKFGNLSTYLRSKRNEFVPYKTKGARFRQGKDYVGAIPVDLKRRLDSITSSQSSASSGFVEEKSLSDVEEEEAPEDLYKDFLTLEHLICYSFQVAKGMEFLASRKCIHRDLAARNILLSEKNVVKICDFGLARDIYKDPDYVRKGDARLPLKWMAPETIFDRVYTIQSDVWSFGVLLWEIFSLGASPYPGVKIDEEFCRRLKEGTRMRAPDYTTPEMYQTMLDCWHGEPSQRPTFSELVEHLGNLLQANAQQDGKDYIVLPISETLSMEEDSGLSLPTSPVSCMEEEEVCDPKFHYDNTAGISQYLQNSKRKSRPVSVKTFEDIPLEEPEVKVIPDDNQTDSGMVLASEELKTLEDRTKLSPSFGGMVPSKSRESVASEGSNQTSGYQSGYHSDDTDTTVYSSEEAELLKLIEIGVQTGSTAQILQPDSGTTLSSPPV

SYK = SYK (Homo sapiens, UniProt P43405)
MAP3K2 = MAP3K2 (Homo sapiens, UniProt Q9Y2U5)
PIP5K1A = PIP5K1A (Homo sapiens, UniProt Q99755)
PIP5K1A, sequence (Q99755 whole entry): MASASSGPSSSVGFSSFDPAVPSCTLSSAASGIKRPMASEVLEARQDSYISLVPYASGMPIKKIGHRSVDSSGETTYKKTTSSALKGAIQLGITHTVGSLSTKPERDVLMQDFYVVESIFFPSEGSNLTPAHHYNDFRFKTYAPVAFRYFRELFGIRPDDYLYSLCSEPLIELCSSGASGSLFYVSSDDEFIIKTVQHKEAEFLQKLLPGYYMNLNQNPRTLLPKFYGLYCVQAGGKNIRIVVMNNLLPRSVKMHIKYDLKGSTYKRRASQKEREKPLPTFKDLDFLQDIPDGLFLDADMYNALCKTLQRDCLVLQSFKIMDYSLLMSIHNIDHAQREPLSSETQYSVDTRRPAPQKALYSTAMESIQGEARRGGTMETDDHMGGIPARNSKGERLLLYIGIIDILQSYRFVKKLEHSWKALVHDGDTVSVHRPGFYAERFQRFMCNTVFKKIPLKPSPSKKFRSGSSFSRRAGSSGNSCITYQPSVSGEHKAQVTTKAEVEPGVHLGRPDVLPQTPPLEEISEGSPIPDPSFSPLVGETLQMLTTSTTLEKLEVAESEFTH

TSSK3 = TSSK3 (Homo sapiens, UniProt Q96PN8)
ROS1 = ROS1 (Homo sapiens, UniProt P08922)
BMX = BMX (Homo sapiens, UniProt P51813)
BMX, sequence (P51813 whole entry): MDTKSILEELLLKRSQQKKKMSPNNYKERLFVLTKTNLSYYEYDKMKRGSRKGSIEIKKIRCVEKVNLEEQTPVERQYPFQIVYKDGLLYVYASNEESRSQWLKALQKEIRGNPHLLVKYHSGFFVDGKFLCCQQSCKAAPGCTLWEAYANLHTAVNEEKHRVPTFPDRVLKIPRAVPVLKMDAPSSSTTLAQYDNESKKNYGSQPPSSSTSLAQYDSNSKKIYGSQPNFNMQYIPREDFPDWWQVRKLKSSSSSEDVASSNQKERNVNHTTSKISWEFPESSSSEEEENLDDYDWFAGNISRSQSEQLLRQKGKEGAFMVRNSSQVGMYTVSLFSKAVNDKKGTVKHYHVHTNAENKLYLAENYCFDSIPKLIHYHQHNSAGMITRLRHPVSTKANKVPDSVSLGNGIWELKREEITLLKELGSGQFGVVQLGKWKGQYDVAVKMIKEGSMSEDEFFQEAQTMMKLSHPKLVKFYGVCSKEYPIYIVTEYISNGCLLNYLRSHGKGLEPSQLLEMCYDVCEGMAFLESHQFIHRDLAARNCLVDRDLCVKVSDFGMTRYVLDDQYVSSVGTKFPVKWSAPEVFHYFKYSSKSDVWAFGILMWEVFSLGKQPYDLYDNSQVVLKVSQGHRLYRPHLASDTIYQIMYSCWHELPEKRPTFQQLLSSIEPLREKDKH

AURKC = AURKC (Homo sapiens, UniProt Q9UQB9)
AURKC, sequence (Q9UQB9 whole entry): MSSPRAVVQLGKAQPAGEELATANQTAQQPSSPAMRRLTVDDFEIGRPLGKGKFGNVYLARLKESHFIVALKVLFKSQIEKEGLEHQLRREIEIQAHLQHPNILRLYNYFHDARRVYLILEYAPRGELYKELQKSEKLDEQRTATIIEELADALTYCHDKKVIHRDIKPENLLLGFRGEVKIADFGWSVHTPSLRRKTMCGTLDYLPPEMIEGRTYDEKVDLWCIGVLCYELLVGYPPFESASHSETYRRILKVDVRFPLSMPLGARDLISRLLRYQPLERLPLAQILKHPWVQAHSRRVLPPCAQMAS

CAMK2B = CAMK2B (Homo sapiens, UniProt Q13554)
MAP2K4 = MAP2K4 (Homo sapiens, UniProt P45985)
MAP2K4, sequence (P45985 whole entry): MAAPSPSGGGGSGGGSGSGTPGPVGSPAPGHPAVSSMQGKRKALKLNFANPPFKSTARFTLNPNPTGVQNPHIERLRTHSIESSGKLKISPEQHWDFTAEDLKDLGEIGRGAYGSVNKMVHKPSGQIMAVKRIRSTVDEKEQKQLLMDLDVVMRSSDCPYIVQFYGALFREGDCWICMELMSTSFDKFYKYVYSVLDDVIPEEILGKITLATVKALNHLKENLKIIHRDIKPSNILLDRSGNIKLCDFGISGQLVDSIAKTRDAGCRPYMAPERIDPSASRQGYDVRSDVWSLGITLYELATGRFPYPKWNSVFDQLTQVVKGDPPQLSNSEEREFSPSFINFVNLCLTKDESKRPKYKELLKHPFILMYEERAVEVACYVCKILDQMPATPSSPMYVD

SIK1 = SIK1 (Homo sapiens, UniProt P57059)
MARK1 = MARK1 (Homo sapiens, UniProt Q9P0L2)
MARK1, sequence (Q9P0L2 whole entry): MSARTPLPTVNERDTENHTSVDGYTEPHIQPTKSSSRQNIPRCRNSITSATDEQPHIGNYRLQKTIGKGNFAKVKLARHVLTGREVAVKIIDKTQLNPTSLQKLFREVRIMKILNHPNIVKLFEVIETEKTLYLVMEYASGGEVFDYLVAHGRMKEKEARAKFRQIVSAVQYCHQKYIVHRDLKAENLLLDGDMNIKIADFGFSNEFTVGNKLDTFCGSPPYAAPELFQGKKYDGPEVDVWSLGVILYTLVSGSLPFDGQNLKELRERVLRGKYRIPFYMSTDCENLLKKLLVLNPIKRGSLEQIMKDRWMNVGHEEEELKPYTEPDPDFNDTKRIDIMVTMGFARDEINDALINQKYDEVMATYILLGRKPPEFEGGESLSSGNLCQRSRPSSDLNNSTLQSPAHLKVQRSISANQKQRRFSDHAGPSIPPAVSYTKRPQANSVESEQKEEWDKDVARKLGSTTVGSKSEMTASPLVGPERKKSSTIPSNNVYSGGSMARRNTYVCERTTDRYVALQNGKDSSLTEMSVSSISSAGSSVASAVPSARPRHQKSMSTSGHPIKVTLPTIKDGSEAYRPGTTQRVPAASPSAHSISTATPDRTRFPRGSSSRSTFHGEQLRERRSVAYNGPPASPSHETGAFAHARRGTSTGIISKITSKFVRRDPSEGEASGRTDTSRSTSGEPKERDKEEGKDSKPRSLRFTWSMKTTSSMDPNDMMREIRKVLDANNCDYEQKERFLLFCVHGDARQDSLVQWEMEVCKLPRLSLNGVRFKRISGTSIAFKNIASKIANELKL

DAPK3 = DAPK3 (Homo sapiens, UniProt O43293)

Q: For `Oc1ccc(C2=Cc3ccc(O)cc3OC2)cc1` [compound 1, idronoxil], which remaining binding at 10 µM [1] is on record?
A: Its remaining binding at 10 µM is 52%.

Q: What about the remaining binding at 10 µM (CSNK1G1) of the same compound?
A: The remaining binding at 10 µM was 95%.

Q: What about the remaining binding at 10 µM (KIT) of the same compound?
A: Its remaining binding at 10 µM is 19%.

Q: What about the remaining binding at 10 µM (AAK1) of the same compound?
A: Its remaining binding at 10 µM is 61%.

Q: And the remaining binding at 10 µM (MAP3K10)?
A: Its remaining binding at 10 µM is 82%.

Q: And the remaining binding at 10 µM (STK4)?
A: The remaining binding at 10 µM was 97%.

Q: And the remaining binding at 10 µM (ADRBK1)?
A: Its remaining binding at 10 µM is 76%.

Q: And the remaining binding at 10 µM (KDR)?
A: The remaining binding at 10 µM was 61%.

Q: And the remaining binding at 10 µM (SYK)?
A: Its remaining binding at 10 µM is 62%.

Q: What about the remaining binding at 10 µM (MAP3K2) of the same compound?
A: The remaining binding at 10 µM was 83%.

Q: What about the remaining binding at 10 µM (PIP5K1A) of the same compound?
A: The remaining binding at 10 µM was 75%.

Q: And the remaining binding at 10 µM (TSSK3)?
A: Its remaining binding at 10 µM is 59%.

Q: What about the remaining binding at 10 µM (ROS1) of the same compound?
A: The remaining binding at 10 µM was 73%.

Q: And the remaining binding at 10 µM (BMX)?
A: Its remaining binding at 10 µM is 75%.

Q: What about the remaining binding at 10 µM (AURKC) of the same compound?
A: Its remaining binding at 10 µM is 74%.

Q: What about the remaining binding at 10 µM (CAMK2B) of the same compound?
A: Its remaining binding at 10 µM is 83%.

Q: And the remaining binding at 10 µM (MAP2K4)?
A: Its remaining binding at 10 µM is 91%.

Q: What about the remaining binding at 10 µM (SIK1) of the same compound?
A: Its remaining binding at 10 µM is 97%.

Q: What about the remaining binding at 10 µM (MARK1) of the same compound?
A: Its remaining binding at 10 µM is 91%.

Q: And the remaining binding at 10 µM (DAPK3)?
A: Its remaining binding at 10 µM is 49%.
